# Laboratory results taken from paper PMC7534330, “UHPLC-MS/MS method for pharmacokinetic and bioavailability determination of five bioactive components in raw and various processed products of Polygala tenuifolia in rat plasma” (Pharmaceutical Biology, 2020).
# Tests used:
# [1] = Pharmacokinetics of five components in rat plasma after oral administration of RPT, LPT and HPT extracts (UHPLC-MS/MS); details: male, SD, in vivo, 1.9 g/kg, rat plasma, mean ± SD; for AUC(0-t): n = 6, read-out: AUC0-t; for AUC(0-inf): n = 6, read-out: AUC0-∞; for Cmax: n = 6, read-out: Cmax; for MRT last: n = 6, read-out: MRT0-t; for Tmax: n = 6, read-out: Tmax; for half-life: n = 6, read-out: t1/2 (converted)
# Method: (§1) A Thermo Hypersil Gold C18 column (3.0 × 100 mm, i.d.; 3 μm) was used for chromatographic separation. An aqueous 10 mM ammonium acetate solution (A) and acetonitrile (B) were selected as the mobile phase components. The optimal gradient program involved the following steps: 5% B (0–1 min), changing to 85% B (1–3.5 min), 85% B (3.5–4.0 min), changing to 5% B (4.0–4.1 min) and 5% B (4.1–5.0 min). The flow rate was set to 0.4 mL/min, the autosampler was maintained at 4 °C and the injection volume was 5 μL.
# (§2) UHPLC-MS/MS was conducted by an Applied Biosystems (AB) Sciex Exion LC system (Foster City, CA) connected to a 6500 + triple quad tandem mass spectrometer with an electrospray ionization source. All detection and quantifications were carried out in positive multiple reaction monitoring (MRM) mode. The optimized parameters were programmed as follows: ion source temperature, 500 °C; curtain gas pressure, 30 kPa; ion source gas 1 pressure, 55 kPa; ion source gas 2 pressure, 55 kPa; and ion spray voltage, […]. The chemical structures and ion mass spectra of targeted compounds are shown in Figure 1. The precursor ion and product ion were m/z 517.1 → 174.9 for A5, m/z 547.0 → 204.9 for A6, m/z 753.2 → 205.2 for DSS, m/z 681.3 → 443.3 for TFSA, m/z 236.8 → 103.2 for TMCA and m/z 136.9 → 92.9 for IS. All data were acquired by using AB Sciex Analyst software (version 1.6.3).
# (§3) After thawing the frozen blood samples at room temperature, a 100 μL aliquot of plasma was spiked with 50 μL of the IS working solution in 2 mL EP tubes, and 750 μL of methanol was added into each of the tubes. Then, these tubes were mixed on a multi-tube Vortexer for 0.5 min before centrifugation at 11,800×g for 10 min. Finally, 200 μL of the obtained supernatant was transferred to a fresh autosampler vial, and then 5 μL of the sample was injected for analysis.
# Male SD rats were randomly divided into four groups (n = 6 in each group), including the RPT group, LPT group, HPT group and control group. All oral administration samples were mixed with 0.5% CMC-Na (w/v) and then given to rats at a dose equivalent to 1.9 g/kg of RPT extract. The control group was orally treatment with equal volume of 0.5% CMC-Na solution. After a single administration, all blood samples were collected from the orbital vein into heparinized centrifuge tubes before administration (0 h) and at 0.083, 0.17, 0.25, 0.5, 0.75, 1, 1.5, 2, 3, 5, 8 and 12 h after administration and then centrifuged at 4 °C and 11,800×g for 10 min. The separated supernatant samples were preserved at −80 °C until they were measured.
# (§4) The elementary pharmacokinetic parameters of plasma samples were analyzed by DAS 2.0 pharmacokinetic software. One-way analysis of variance (ANOVA) was used for statistical comparison for pharmacokinetic and interaction studies. A p-value < 0.05 indicated a significant difference. The main parameters considered were as follows: AUC0–∞ (the area under the blood concentration-time curve from zero to infinity initial plasma concentration), MRT (the mean residence time), Cmax (peak plasma concentration) and Tmax (time to reach Cmax for oral dose), t1/2 (elimination half-life) (He et al. [2015]). The absolute bioavailability (F) was evaluated as follows: F(%)=(AUCoral×Dosei.v.)/(AUCi.v.×Doseoral)×100%
# [2] = Pharmacokinetics and absolute bioavailability of five compounds after oral and i.v. administration (UHPLC-MS/MS); format: in vivo; details: rat; for MRT last: read-out: MRT0-t; for half-life: read-out: t1/2 (converted); for AUCΔ0-t (dose-normalized) / AUCΔ0-∞ (dose-normalized) / CΔmax (dose-normalized): dose-normalized value
# Method: as §1, §2, §3
# The SD rats were randomly divided into oral and i.v. groups for A5, A6, DSS, TFSA and TMCA administration (n = 6 in each group). The oral doses of A5, A6, DSS, TFSA and TMCA groups were 7.40, 11.60, 16.00, 50.00 and 3.11 mg/kg, respectively, and the corresponding i.v. doses were 0.74, 1.16, 1.60, 5.00 and 0.31 mg/kg, respectively. Blood samples were collected from the suborbital vein into heparinized tubes before and 0, 0.083, 0.17, 0.25, 0.5, 1, 2, 3, 5 and 8 h after administration. The treatment method of blood samples was the same as that mentioned above.
# as §4
# [3] = oral HPT extract equivalent to 1.9 g/kg of RPT extract
# [4] = oral LPT extract equivalent to 1.9 g/kg of RPT extract
# [5] = SD, in vivo, iv, i.v. administration, A5 0.74, A6 1.16, DSS 1.60, TFSA 5.00, TMCA 0.31 mg/kg, n = 6
# [6] = SD, in vivo, oral administration of pure compound, A5 7.40, A6 11.60, DSS 16.00, TFSA 50.00, TMCA 3.11 mg/kg, n = 6
compound,measurement,setting,value
"COc1cc(C=CC(=O)O)cc(OC)c1OC [TMCA, 3,4,5-trimethoxycinnamic acid]",AUC(0-t),[1]; [3],124 ± 41.3 ng·h/mL
same,AUC(0-inf),[1]; [3],184 ± 137 ng·h/mL
same,Cmax,[1]; [3],63.2 ± 14.2 ng/mL
same,MRT last,[1]; [3],251 ± 54.6 min
same,Tmax,[1]; [3],4.2 ± 1.2 min
same,half-life,[1]; [3],224 ± 140 min
same,AUC(0-t),[1]; [4],135 ± 33.4 ng·h/mL
same,AUC(0-inf),[1]; [4],173 ± 40.4 ng·h/mL
same,Cmax,[1]; [4],80.7 ± 11.1 ng/mL
same,MRT last,[1]; [4],214 ± 15 min
same,Tmax,[1]; [4],6 ± 2.4 min
same,half-life,[1]; [4],409 ± 109 min
same,AUC(0-t),[1]; oral RPT extract 1.9 g/kg,91.7 ± 29.1 ng·h/mL
same,AUC(0-inf),[1]; oral RPT extract 1.9 g/kg,132 ± 33.4 ng·h/mL
same,Cmax,[1]; oral RPT extract 1.9 g/kg,38.8 ± 13.8 ng/mL
same,MRT last,[1]; oral RPT extract 1.9 g/kg,262 ± 31.8 min
same,Tmax,[1]; oral RPT extract 1.9 g/kg,7.8 ± 3 min
same,half-life,[1]; oral RPT extract 1.9 g/kg,416 ± 178 min
same,AUC(0-inf),[2]; [5],226 ± 61.2 ng·h/mL
same,AUC(0-t),[2]; [5],225 ± 60.9 ng·h/mL
same,Cmax,[2]; [5],1470 ± 238 ng/mL
same,MRT last,[2]; [5],15 ± 3.6 min
same,half-life,[2]; [5],37.2 ± 7.8 min
same,AUC(0-inf),[2]; [6],971 ± 59.8 ng·h/mL
same,AUC(0-t),[2]; [6],968 ± 58.4 ng·h/mL
same,Cmax,[2]; [6],1110 ± 90.5 ng/mL
same,MRT last,[2]; [6],40.8 ± 1.8 min
same,Tmax,"[2]; SD, in vivo, oral administration of pure compound, A5 7.40, A6 11.60, DSS 16.00, TFSA 50.00, TMCA 3.11 mg/kg, n = 6, read-out: Tmax",15 min
same,half-life,[2]; [6],39 ± 1.2 min
same,AUCΔ0-t (dose-normalized),[2]; i.v. administration,725.52 ± 196.42 ng·h/mL
same,AUCΔ0-∞ (dose-normalized),[2]; i.v. administration,730.65 ± 197.45 ng·h/mL
same,CΔmax (dose-normalized),[2]; i.v. administration,4750.32 ± 768.32 ng/mL
same,AUCΔ0-t (dose-normalized),[2]; oral administration,311.40 ± 18.78 ng·h/mL
same,AUCΔ0-∞ (dose-normalized),[2]; oral administration,312.32 ± 19.23 ng·h/mL
same,CΔmax (dose-normalized),[2]; oral administration,356.33 ± 29.10 ng/mL
same,"F, absolute bioavailability",[2]; oral vs i.v. (i.v. dose 1/10 of oral dose),42.91 % of dose
